Assay results taken from patent publication US9663513B2, “Pyrimidine PDE10 inhibitors” (Merck Sharp & Dohme Corp., priority 2012, dated 2017).

Target: human PDE10A2 (Homo sapiens (Human), UniProt Q9Y233)
Assay: PDE10 fluorescence polarization (IMAP FP) inhibition assay
Assay type: biochemical
Settings: human PDE10A2 from transfected AD293 cells; FAM-labeled cAMP 50 nM; apparent inhibition constant; read-out: PDE10A Ki
How it was run: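 Cytoplasmic lysate of AD293 cells transiently expressing human PDE10A2 (enzyme level giving 20% conversion) incubated with 50 nM FAM-cAMP in pH 7.2 Tris/MgCl2 buffer, 30 min at room temperature. IMAP binding solution added, FP read after ≥1 h; 10-point 3-fold compound titrations fitted to a four-parameter equation.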

Chain of human PDE10A2 (Q9Y233 267-1055): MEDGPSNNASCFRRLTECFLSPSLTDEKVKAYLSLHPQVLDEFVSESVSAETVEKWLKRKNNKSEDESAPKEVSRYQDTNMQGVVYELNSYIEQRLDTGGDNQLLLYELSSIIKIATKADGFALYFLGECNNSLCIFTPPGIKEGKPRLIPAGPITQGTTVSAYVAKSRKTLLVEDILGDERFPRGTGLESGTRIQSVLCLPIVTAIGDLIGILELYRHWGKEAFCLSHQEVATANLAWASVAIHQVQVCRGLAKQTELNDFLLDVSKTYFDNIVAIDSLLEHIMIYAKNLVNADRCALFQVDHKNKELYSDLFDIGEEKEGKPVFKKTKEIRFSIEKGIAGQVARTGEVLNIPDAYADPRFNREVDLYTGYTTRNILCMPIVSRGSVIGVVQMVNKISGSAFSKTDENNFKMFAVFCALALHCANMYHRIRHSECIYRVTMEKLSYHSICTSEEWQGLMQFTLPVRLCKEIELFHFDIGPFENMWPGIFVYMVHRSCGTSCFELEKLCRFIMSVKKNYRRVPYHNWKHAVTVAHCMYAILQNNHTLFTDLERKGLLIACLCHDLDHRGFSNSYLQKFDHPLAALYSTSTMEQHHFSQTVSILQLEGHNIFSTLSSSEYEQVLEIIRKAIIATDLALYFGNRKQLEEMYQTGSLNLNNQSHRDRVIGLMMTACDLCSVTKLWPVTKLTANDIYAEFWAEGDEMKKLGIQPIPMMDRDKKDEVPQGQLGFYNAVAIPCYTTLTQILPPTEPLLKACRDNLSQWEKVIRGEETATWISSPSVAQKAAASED

Structure (SMILES)	Ki [nM]
COc1ccc([C@H]2C[C@@H]2COc2nc(C)ncc2-c2ccnc(F)c2)nc1 [Example 21, 5-(2-fluoropyridin-4-yl)-4-(((1S,2S)-2-(5-methoxypyridin-2-yl)cyclopropyl)methoxy)-2-methylpyrimidine]	0.33
Cc1ccc([C@H]2C[C@@H]2COc2nc(C)ncc2-c2cccc(OC(C)C)c2)nc1 [Example 3, 5-(3-isopropoxyphenyl)-2-methyl-4-(((1S,2S)-2-(5-methylpyridin-2-yl)cyclopropyl)methoxy)pyrimidine]	0.3
Cc1ncc([C@@H]2CCC3(C[C@H]2O)OCCO3)c(OC[C@H]2C[C@@H]2c2ccc3ccccc3n2)n1 [Example 205, (7R,8S)-8-(2-methyl-4-(((1S,2S)-2-(quinolin-2-yl)cyclopropyl)methoxy)pyrimidin-5-yl)-1,4-dioxaspiro[4.5]decan-7-ol]	7.08
CCOc1cccc(-c2cnc(C)nc2OC[C@H]2C[C@@H]2c2ccc3ccccc3n2)c1 (single isomer, unassigned) [Example 40, 2,2,2-trifluoroacetate]	0.04
COc1ccc([C@H]2C[C@@H]2COc2nc(C)ncc2-c2ccc(C3(O)CCCC3)nc2)nc1 [Example 89, 1-(5-(4-(((1S,2S)-2-(5-methoxypyridin-2-yl)cyclopropyl)methoxy)-2-methylpyrimidin-5-yl)pyridin-2-yl)cyclopentanol]	0.06
COc1ccc(-c2cnc(C)nc2OC[C@H]2C[C@@H]2c2ccc3ccccc3n2)cc1 (single isomer, unassigned) [Example 29]	1.66
Cc1ccc([C@H]2C[C@@H]2COc2nc(C)ncc2[C@]2(F)CC[C@@H](O)CC2)nc1 [Example 210, (trans)-4-Fluoro-4-(2-methyl-4-(((1S,2S)-2-(5-methylpyridin-2-yl)cyclopropyl)methoxy)pyrimidin-5-yl)cyclohexanol]	7.85
COc1ccc([C@H]2C[C@@H]2COc2nc(C)ncc2-c2ccc(-c3nnnn3C)cc2)nc1 [Example 224, 4-(((1S,2S)-2-(5-methoxypyridin-2-yl)cyclopropyl)methoxy)-2-methyl-5-(4-(1-methyl-1H-tetrazol-5-yl)phenyl)pyrimidine]	1.08
COc1ccc([C@H]2C[C@@H]2COc2nc(C)ncc2-c2ccc(C3(O)COC3)nc2)nc1 [Example 91]	0.16
Cc1ccnc(-c2cnc(C)nc2OC[C@H]2C[C@@H]2c2ccc3ccccc3n2)c1 [Example 128, 2-((1S,2S)-2-((2-methyl-5-(4-methylpyridin-2-yl)pyrimidin-4-yloxy)methyl)cyclopropyl)quinoline]	0.12
CCn1nnnc1-c1ccc(-c2cnc(C)nc2OC[C@H]2C[C@@H]2c2ccc(OC)cn2)cc1 [Example 226, 5-(4-(1-ethyl-1H-tetrazol-5-yl)phenyl)-4-(((1S,2S)-2-(5-methoxypyridin-2-yl)cyclopropyl)methoxy)-2-methylpyrimidine]	0.77
CCn1cc(-c2cnc(C)nc2OC[C@H]2C[C@@H]2c2ccc(OC)cn2)nn1 [Example 247, 5-(1-ethyl-1H-1,2,3-triazol-4-yl)-4-(((1S,2S)-2-(5-methoxypyridin-2-yl)cyclopropyl)methoxy)-2-methylpyrimidine]	2.43
Cc1ncc([C@H]2CC[C@H](O)CC2)c(OC[C@H]2C[C@H]2c2ccc3ccccc3n2)n1 [Example 192, Trans-4-(2-methyl-4-(((1S,2R)-2-(quinolin-2-yl)cyclopropyl)methoxy)pyrimidin-5-yl)cyclohexanol]	0.01
Cc1ccc([C@H]2C[C@@H]2COc2nc(C)ncc2-c2cnc3[nH]ncc3c2)nc1 [Example 142, 5-(2-methyl-4-(((1S,2S)-2-(5-methylpyridin-2-yl)cyclopropyl)methoxy)pyrimidin-5-yl)-1H-pyrazolo[3,4-b]pyridine]	0.37
COc1ccc([C@H]2C[C@@H]2COc2nc(C)ncc2-c2ccc(-c3nnnn3C(F)F)cc2)nc1 [Example 228, 5-(4-(1-(difluoromethyl)-1H-tetrazol-5-yl)phenyl)-4-(((1S,2S)-2-(5-methoxypyridin-2-yl)cyclopropyl)methoxy)-2-methylpyrimidine]	2.06
Cc1ncc(-c2cnc3ccccn23)c(OC[C@H]2C[C@@H]2c2ccc3ccccc3n2)n1 [Example 133, 2-((1S,2S)-2-((5-(imidazo[1,2-a]pyridin-3-yl)-2-methylpyrimidin-4-yloxy)methyl)cyclopropyl)quinoline]	0.06
Cc1ncc([C@H]2CC[C@@H](O)CC2)c(OC[C@H]2C[C@H]2c2ccc3ccccc3n2)n1 [Example 193, (1R,4s)-4-(2-methyl-4-(((1S,2R)-2-(quinolin-2-yl)cyclopropyl)methoxy)pyrimidin-5-yl)cyclohexanol]	0.07
Cc1ccc([C@H]2C[C@@H]2COc2nc(C)ncc2-c2ccc(C(C)O)nc2)nc1 (stereo partly drawn) [Example 141, 1-(5-(2-methyl-4-(((1S,2S)-2-(5-methylpyridin-2-yl)cyclopropyl)methoxy)pyrimidin-5-yl)pyridin-2-yl)ethanol]	0.24

Structure (SMILES)	Ki [nM]
COc1ccc([C@H]2C[C@@H]2COc2nc(C)ncc2-c2ccc(O)nc2)nc1 [Example 69, 5-(4-(((1S,2S)-2-(5-methoxypyridin-2-yl)cyclopropyl)methoxy)-2-methylpyrimidin-5-yl)pyridin-2-ol]	0.94
Cc1ncc(C2CCC3(CC2)OCCO3)c(OC[C@@H](C)Cc2ccc3ccccc3n2)n1 [Example 204, 2-((2S)-2-methyl-3-(2-methyl-5-(1,4-dioxaspiro[4.5]decan-8-yl)pyrimidin-4 yloxy)propyl)quinoline]	0.73
COc1ccc([C@H]2C[C@@H]2COc2nc(C)ncc2-c2ccc(C(=O)O)nn2)nc1 [Example 99, 6-(4-(((1S,2S)-2-(5-methoxypyridin-2-yl)cyclopropyl)methoxy)-2-methylpyrimidin-5-yl)pyridazine-3-carboxylic acid]	2.68
Cc1ccc([C@H]2C[C@@H]2COc2nc(C)ncc2-c2cn(C)nc2C(F)F)nc1 [Example 125, 5-(3-(difluoromethyl)-1-methyl-1H-pyrazol-4-yl)-2-methyl-4-(((1S,2S)-2-(5-methylpyridin-2-yl)cyclopropyl)methoxy)pyrimidine]	0.4
Cc1ccc([C@H]2C[C@@H]2COc2nc(C)ncc2-c2ccc(F)c(C)c2)nc1 [Example 9, 5-(4-fluoro-3-methylphenyl)-2-methyl-4-(((1S,2S)-2-(5-methylpyridin-2-yl)cyclopropyl)methoxy)pyrimidine]	1.13
Cc1ccc([C@H]2C[C@@H]2COc2nc(C)ncc2-c2ccccc2C(F)(F)F)nc1 [Example 14, 2-methyl-4-(((1S,2S)-2-(5-methylpyridin-2-yl)cyclopropyl)methoxy)-5-(2-(trifluoromethyl)phenyl)pyrimidine]	3.1
COc1ccc([C@H]2C[C@@H]2COc2nc(C)ncc2-c2ccc(OCC3CC3)nc2)nc1 [Example 72, 5-(6-(cyclopropylmethoxy)pyridin-3-yl)-4-(((1S,2S)-2-(5-methoxypyridin-2-yl)cyclopropyl)methoxy)-2-methylpyrimidine]	0.5
COc1ccc([C@H]2C[C@@H]2COc2nc(C)ncc2-c2c[nH]oc2=O)nc1 [Example 242, 4-(4-(((1S,2S)-2-(5-methoxypyridin-2-yl)cyclopropyl)methoxy)-2-methylpyrimidin-5-yl)isoxazol-5(2H)-one]	2.36
CCC(O)c1ccc(-c2cnc(C)nc2OC[C@H]2C[C@@H]2c2ccc(C)cn2)cn1 (stereo partly drawn) [Example 144, 1-(5-(2-methyl-4-(((1S,2S)-2-(5-methylpyridin-2-yl)cyclopropyl)methoxy)pyrimidin-5-yl)pyridin-2-yl)propan-1-ol]	0.73
Cc1ccc([C@H]2C[C@@H]2COc2nc(C)ncc2-c2ccc(C)cc2C)nc1 [Example 2, 5-(2,4-dimethylphenyl)-2-methyl-4-(((1S,2S)-2-(5-methylpyridin-2-yl)cyclopropyl)methoxy)pyrimidine]	2.44
COc1ccc([C@H]2C[C@@H]2COc2nc(C)ncc2-c2c[nH]nn2)nc1 [Example 245, 4-(((1S,2S)-2-(5-methoxypyridin-2-yl)cyclopropyl)methoxy)-2-methyl-5-(1H-1,2,3-triazol-4-yl)pyrimidine]	1.36
CCc1ccccc1-c1cnc(C)nc1OC[C@H]1C[C@@H]1c1ccc(C)cn1 [Example 8]	3.24
COc1ccc([C@H]2C[C@@H]2COc2nc(C)ncc2-c2ccc3[nH]ccc3c2)nc1 [Example 90, 5-(4-(((1S,2S)-2-(5-methoxypyridin-2-yl)cyclopropyl)methoxy)-2-methylpyrimidin-5-yl)-1H-indole]	2.13
Cc1ncc(-c2ncccc2F)c(OC[C@H]2C[C@@H]2c2ccc3ccccc3n2)n1 [Example 127, 2-((1S,2S)-2-((5-(3-fluoropyridin-2-yl)-2-methylpyrimidin-4-yloxy)methyl)cyclopropyl)quinoline]	0.51
COc1ccc(-c2cnc(C)nc2OC[C@H]2C[C@@H]2c2ccc3ccccc3n2)cc1 (single isomer, unassigned) [Example 28]	0.1
Cc1ncc(-c2ccc(C3(O)CCCC3)nc2)c(OC[C@H]2C[C@@H]2c2ccccn2)n1 [Example 120, 1-(5-(2-methyl-4-(((1S,2S)-2-(pyridin-2-yl)cyclopropyl)methoxy)pyrimidin-5-yl)pyridin-2-yl)cyclopentanol]	1.04
Cc1ncc(-c2ccc(C(F)(F)F)nc2)c(OC[C@H]2C[C@@H]2c2ccccn2)n1 [Example 117, 2-methyl-4-(((1S,2S)-2-(pyridin-2-yl)cyclopropyl)methoxy)-5-(6-(trifluoromethyl)pyridin-3-yl)pyrimidine]	23.5
COCCOc1ccc(-c2cnc(C)nc2OC[C@H]2C[C@@H]2c2ccc(C)cn2)cn1 [Example 57, 5-(6-(2-methoxyethoxy)pyridin-3-yl)-2-methyl-4-(((1S,2S)-2-(5-methylpyridin-2-yl)cyclopropyl)methoxy)pyrimidine]	0.57
